From patent US20130324412A1, “N-ALKOXYAMIDES OF 6-(SUBSTITUTED PHENYL)-4-AMINOPICOLINATES AND 2-(SUBSTITUTED PHENYL)-6-AMINO-4-PYRIMIDINECARBOXYLATES AND THEIR USE AS SELECTIVE HERBICIDES FOR CROPS” (DOW AGROSCIENCES LLC, priority 2009, published 2013)

Tests used:
Assay type in all cases: in vivo
[1] = test system: purple deadnettle (Lamium purpureum); experiment: Postemergence herbicidal activity in oilseed rape (canola), purple deadnettle; design: unit not given here; conditions: oilseed rape (canola) test, visual rating after 21 d, probit analysis, dose to kill or control 80 percent
Procedure: Seeds of oilseed rape (canola) and the desired weed species were planted in Sun Gro MetroMix® 360 planting mixture, which typically has a pH of 6.0 to 6.8 and an organic matter content of about 30 percent, in plastic pots with a surface area of 95 cm^2. When required to ensure good germination and healthy plants, a fungicide treatment and/or other chemical or physical treatment was applied. The plants were grown for 15-28 d in a greenhouse with an approximate 15-h photoperiod which was maintained at about 23-29° C. during the day and 22-28° C. during the night. Nutrients and water were added on a regular basis and supplemental lighting was provided with overhead metal halide 1000-Watt lamps as necessary. The oilseed rape (canola) plants were utilized for testing when they reached the third or fourth true leaf stage. The weed species were utilized at the fourth true leaf stage.
A weighed amount, determined by the highest rate to be tested, of each test compound was dissolved in 4 mL of a 97:3 v/v mixture of acetone and DMSO to obtain concentrated stock solutions. […] The concentrated stock solutions obtained were diluted with 20 mL of an aqueous mixture containing acetone, water and Agri-Dex crop oil concentrate, in a 16.7:82.1:1.25 v/v ratio to obtain spray solutions containing the highest application rates. Additional application rates were obtained by serial dilution of 12 mL of the high rate solution into a solution containing 2 mL of 97:3 v/v mixture of acetone and DMSO and 10 mL of an aqueous mixture containing acetone, water and Agri-Dex crop oil concentrate, in a 16.7:82.1:1.25 v/v ratio to obtain ½×, ¼×, ⅛× and 1/16× rates of the high rate. Compound requirements are based upon a 12 mL application volume at a rate of 187 L/ha. Formulated compounds were applied to the plant material with an overhead Mandel track sprayer equipped with 8002E nozzles calibrated to deliver 187 L/ha over an application area of 0.503 m^2 at a spray height of 18 inches (43 cm) above the average plant canopy height. Control plants were sprayed in the same manner with the solvent blank.
The treated plants and control plants were placed in a greenhouse as described above and watered by sub-irrigation to prevent wash-off of the test compounds. After 21 d, the condition of the test plants as compared with that of the untreated plants was determined visually and scored on a scale of 0 to 100 percent where 0 corresponds to no injury and 100 corresponds to complete kill.
By applying the well-accepted probit analysis as described by J. Berkson in Journal of the American Statistical Society 1953, 48, 565, and by D. Finney in “Probit Analysis” Cambridge University Press (1952), the above data can be used to calculate GR20 and GR80 values, which are defined as growth reduction factors that correspond to the effective dose of herbicide required to kill or control 20 percent or 80 percent, respectively, of a target plant.

[2] = test system: lambsquarters (Chenopodium album); experiment: General postemergence herbicidal activity, lambsquarters; conditions: post-emergence, 336 h, 70 g ai/ha, postemergence, after 14 d, 0 = no injury, 100 = complete kill, read-out: CHEAL % Visual Injury
Method in brief: (§1)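 Greenhouse plants at first to second true leaf stage sprayed overhead at 187 L/ha in acetone/DMSO with crop oil concentrate and surfactant, at a high rate plus ½× to 1/16× serial dilutions. Injury rated visually after 14 d against solvent-blank controls, 0 (none) to 100% (complete kill).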

[3] = test system: corn (Zea mays); experiment: General postemergence herbicidal activity, corn; conditions: post-emergence, 336 h, 70 g ai/ha, postemergence, after 14 d, 0 = no injury, 100 = complete kill, read-out: ZEAMX % Visual Injury
Method in brief: as §1

SMILES | LAMPU GR80 [1] | pest or weed control at 70 g/ha [2] [%] | plant injury at 70 g/ha [3] [%]
COc1c(Cl)ccc(-c2cc(N)c(Cl)c(C(=O)NOCC(C)C)n2)c1F [Compound 1, 4-amino-3-chloro-6-(4-chloro-2-fluoro-3-methoxyphenyl)-N-(2-methylpropoxy)picolinamide] | <4.38 | 100 | 0
CONC(=O)c1nc(-c2ccc(Cl)c(OC)c2F)cc(N)c1Cl [Compound 2, 4-Amino-3-chloro-6-(4-chloro-2-fluoro-3-methoxyphenyl)-N-methoxypicolinamide] | <4.38 | 100 | 10
